Assay results from PMC8133782, “Identification of a series of hair-cell MET channel blockers that protect against aminoglycoside-induced ototoxicity” (JCI Insight, 2021).
Blank lines part the entries; values can stand above or below the compound they belong to.

Legend:
Assay type in all cases: cell-based
[1] = target: T1, mechano-electrical transducer (MET) channel (pore subunit TMC1) (Mus musculus, UniProt Q8R4P5); assay: whole-cell patch clamp of MET currents in OHCs, fractional block at […] (approximately […])
T1 construct: native MET channel in early postnatal CD-1 mouse outer hair cells
T1 sequence (Q8R4P5 1-757): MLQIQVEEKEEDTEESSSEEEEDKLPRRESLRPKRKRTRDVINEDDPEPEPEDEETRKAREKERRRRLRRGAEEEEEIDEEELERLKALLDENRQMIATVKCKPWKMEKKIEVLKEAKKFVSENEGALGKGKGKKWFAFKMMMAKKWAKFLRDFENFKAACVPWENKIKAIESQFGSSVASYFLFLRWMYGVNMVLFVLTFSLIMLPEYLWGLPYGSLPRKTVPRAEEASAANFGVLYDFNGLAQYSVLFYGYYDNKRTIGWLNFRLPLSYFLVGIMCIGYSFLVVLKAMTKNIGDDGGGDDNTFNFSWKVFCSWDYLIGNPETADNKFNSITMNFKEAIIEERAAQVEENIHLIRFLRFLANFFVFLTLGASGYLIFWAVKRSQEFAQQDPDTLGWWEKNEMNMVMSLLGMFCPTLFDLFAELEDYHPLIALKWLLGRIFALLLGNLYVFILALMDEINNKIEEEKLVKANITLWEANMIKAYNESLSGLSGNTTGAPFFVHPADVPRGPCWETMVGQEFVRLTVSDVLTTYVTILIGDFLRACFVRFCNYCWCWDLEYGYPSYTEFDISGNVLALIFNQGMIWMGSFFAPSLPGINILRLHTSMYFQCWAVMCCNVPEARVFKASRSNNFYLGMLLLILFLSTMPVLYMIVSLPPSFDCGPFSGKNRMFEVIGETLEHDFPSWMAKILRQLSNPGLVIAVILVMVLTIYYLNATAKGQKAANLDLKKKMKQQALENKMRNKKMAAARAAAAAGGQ

[2] = target: T1, mechano-electrical transducer (MET) channel (pore subunit TMC1); assay: whole-cell patch clamp of MET currents in OHCs, fractional block at […]
[3] = target: T1, mechano-electrical transducer (MET) channel (pore subunit TMC1); assay: whole-cell patch clamp of MET currents in OHCs, fractional block at […], partially reversible

- inhibition at 50 µM [1]: ~80%
SMILES: C(=C\c1ccccc1)/CN1CCC(c2nc3ccccc3[nH]2)CC1 [UoS-3606]

- inhibition at 50 µM [2]: ~70%
SMILES: O=C(CN1CCC(c2nc3ccccc3[nH]2)CC1)Nc1cccc([N+](=O)[O-])c1 [UoS-3607]

- inhibition at 50 µM [3]: ~70%
SMILES: O=C(Nc1ccc(OC(F)(F)F)cc1)C1CCN(Cc2nc3ccccc3[nH]2)CC1 [UoS-8052]
